Molecules are shown by their SMILES.

For the test, the target named is T1, HDAC6 (Homo sapiens, UniProt Q9UBN7).
T1 construct: Full length human recombinant HDAC6 protein was expressed in baculoviral system; made in house; host or cells: baculoviral system
T1 sequence (Q9UBN7 1-1215): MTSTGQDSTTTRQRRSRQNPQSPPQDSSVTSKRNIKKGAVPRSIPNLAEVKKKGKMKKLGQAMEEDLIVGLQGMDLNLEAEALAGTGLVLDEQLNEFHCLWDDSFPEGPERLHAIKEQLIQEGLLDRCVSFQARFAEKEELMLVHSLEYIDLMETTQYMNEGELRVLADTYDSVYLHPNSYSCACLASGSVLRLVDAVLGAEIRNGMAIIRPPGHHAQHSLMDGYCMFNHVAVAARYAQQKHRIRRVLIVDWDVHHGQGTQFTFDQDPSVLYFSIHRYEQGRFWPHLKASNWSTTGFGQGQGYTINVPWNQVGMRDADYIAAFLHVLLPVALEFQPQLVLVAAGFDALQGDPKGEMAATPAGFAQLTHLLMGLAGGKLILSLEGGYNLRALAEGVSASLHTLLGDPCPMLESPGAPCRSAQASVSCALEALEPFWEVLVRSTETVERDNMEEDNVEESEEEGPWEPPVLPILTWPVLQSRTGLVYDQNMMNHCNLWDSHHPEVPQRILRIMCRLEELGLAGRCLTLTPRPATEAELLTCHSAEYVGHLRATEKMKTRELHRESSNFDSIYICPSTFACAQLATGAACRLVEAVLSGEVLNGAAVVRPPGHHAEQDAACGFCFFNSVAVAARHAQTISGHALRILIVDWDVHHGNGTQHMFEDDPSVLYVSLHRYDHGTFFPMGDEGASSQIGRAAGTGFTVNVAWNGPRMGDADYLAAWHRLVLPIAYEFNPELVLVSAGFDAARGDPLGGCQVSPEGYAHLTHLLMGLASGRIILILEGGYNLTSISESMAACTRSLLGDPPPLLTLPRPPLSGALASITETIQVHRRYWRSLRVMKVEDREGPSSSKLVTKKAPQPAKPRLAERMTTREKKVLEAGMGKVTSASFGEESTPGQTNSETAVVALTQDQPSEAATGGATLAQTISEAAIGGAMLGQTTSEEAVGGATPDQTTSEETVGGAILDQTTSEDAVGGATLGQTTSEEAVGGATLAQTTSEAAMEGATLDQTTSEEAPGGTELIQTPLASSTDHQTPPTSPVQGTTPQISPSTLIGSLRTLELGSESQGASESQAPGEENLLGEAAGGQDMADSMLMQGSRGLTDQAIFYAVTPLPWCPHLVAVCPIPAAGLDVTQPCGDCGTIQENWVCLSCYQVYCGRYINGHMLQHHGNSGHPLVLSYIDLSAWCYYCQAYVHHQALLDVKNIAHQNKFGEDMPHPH
Briefly: In vitro Histone Deacetylase Assay (enzymatic HDAC6 electrophoretic mobility shift assay). Type of test: biochemical. To be noted: full length human recombinant HDAC6, 1 nM enzyme, 2 μM peptide substrate RHKK(Ac)-NH2, 25° C.; read-out: HDAC6 activity range. Put shortly:
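Deacetylation was read by microfluidic mobility shift as product/(substrate+product) peak ratio and normalised to 0% and 100% inhibition controls. Reactions used 1 nM baculovirus-expressed full-length human HDAC6 and 2 μM labelled RHKK(Ac)-NH2 in pH 7.5 HEPES buffer with 1% DMSO at 25 °C. IC50 was from 4-parameter fits of 12 concentrations.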
In general terms: Mobility shift assays separate free from complexed probe on a gel.
For the molecule `O=C(NO)c1ccc2c(c1)CC[C@]1(CCN(C3CCCC3)C1=O)C2` [Compound I-163, (R)-1′-cyclopentyl-N-hydroxy-2′-oxo-3,4-dihydro-1H-spiro[naphthalene-2,3′-pyrrolidine]-6-carboxamide], the IC50 is at most 100 nM.

`O=C(NO)c1ccc2c(c1)CC[C@@]1(CCN(C3CCCC3)C1=O)C2` [Compound I-164, (S)-1′-cyclopentyl-N-hydroxy-2′-oxo-3,4-dihydro-1H-spiro[naphthalene-2,3′-pyrrolidine]-6-carboxamide]: the IC50 was in the range of 100 to 500 nM.

As for `O=C(NO)c1ccc2c(c1)CC[C@]1(CCN(CC(F)(F)F)C1=O)C2` [Compound I-165, (R)-N-hydroxy-2′-oxo-1′-(2,2,2-trifluoroethyl)-3,4-dihydro-1H-spiro[naphthalene-2,3′-pyrrolidine]-6-carboxamide], the IC50 was at most 100 nM.

Turning to `O=C(NO)c1ccc2c(c1)CC[C@@]1(CCN(CC(F)(F)F)C1=O)C2` [Compound I-166, (S)-N-hydroxy-2′-oxo-1′-(2,2,2-trifluoroethyl)-3,4-dihydro-1H-spiro[naphthalene-2,3′-pyrrolidine]-6-carboxamide], the IC50 was 100 to 500 nM.

Regarding `O=C(NO)c1ccc2c(c1)CC[C@]1(CCN(c3cc(F)ccc3F)C1=O)C2` [Compound I-167, (R)-1′-(2,5-difluorophenyl)-N-hydroxy-2′-oxo-3,4-dihydro-1H-spiro[naphthalene-2,3'-pyrrolidine]-6-carboxamide], the IC50 is at most 100 nM.

In the case of `Cn1cc(N2CC[C@]3(CCc4cc(C(=O)NO)ccc4C3)C2=O)cn1` [Compound I-168, (R)-N-hydroxy-1′-(1-methyl-1H-pyrazol-4-yl)-2′-oxo-3,4-dihydro-1H-spiro[naphthalene-2,3′-pyrrolidine]-6-carboxamide], the IC50 is at most 100 nM.

Consider `O=C(NO)c1ccc2c(c1)CC[C@@]1(CCN(c3cc(F)ccc3F)C1=O)C2` [Compound I-169, (S)-1′-(2,5-difluorophenyl)-N-hydroxy-2′-oxo-3,4-dihydro-1H-spiro[naphthalene-2,3′-pyrrolidine]-6-carboxamide], for which the IC50 is at most 100 nM.

With `Cn1cc(N2CC[C@@]3(CCc4cc(C(=O)NO)ccc4C3)C2=O)cn1` [Compound I-170, (S)-N-hydroxy-1′-(1-methyl-1H-pyrazol-4-yl)-2′-oxo-3,4-dihydro-1H-spiro[naphthalene-2,3-pyrrolidine]-6-carboxamide], the IC50 was at most 100 nM.

Take `N#Cc1ccc(N2CC[C@@]3(CCc4cc(C(=O)NO)ccc4C3)C2=O)cc1` [Compound I-173, (S)-1′-(4-cyanophenyl)-N-hydroxy-2′-oxo-3,4-dihydro-1H-spiro[naphthalene-2,3′-pyrrolidine]-6-carboxamide]: the IC50 is at most 100 nM.

On to `N#Cc1ccccc1N1CC[C@@]2(CCc3cc(C(=O)NO)ccc3C2)C1=O` [Compound I-174, (S)-1′-(2-cyanophenyl)-N-hydroxy-2′-oxo-3,4-dihydro-1H-spiro[naphthalene-2,3′-pyrrolidine]-6-carboxamide], for which the IC50 is at most 100 nM.

`N#Cc1ccccc1N1CC[C@]2(CCc3cc(C(=O)NO)ccc3C2)C1=O` [Compound I-175, (R)-1′-(2-cyanophenyl)-N-hydroxy-2′-oxo-3,4-dihydro-1H-spiro[naphthalene-2,3′-pyrrolidine]-6-carboxamide]: the IC50 was at most 100 nM.

For `O=C(NO)c1ccc2c(c1)CCC1(CCCN(Cc3ccccc3)C1=O)C2` (centres unmarked) [Compound I-176, 1′-benzyl-N-hydroxy-2′-oxo-3,4-dihydro-1H-spiro[naphthalene-2,3′-piperidine]-6-carboxamide], the IC50 was at most 100 nM.

`O=C(NO)c1ccc2c(c1)CCC1(CCCNC1=O)C2` (centres unmarked) [Compound I-177, N-hydroxy-2′-oxo-3,4-dihydro-1H-spiro[naphthalene-2,3′-piperidine]-6-carboxamide]: the IC50 is at most 100 nM.

As to `CN1CCCC2(CCc3cc(C(=O)NO)ccc3C2)C1=O` (centres unmarked) [Compound I-178, N-hydroxy-1′-methyl-2′-oxo-3,4-dihydro-1H-spiro[naphthalene-2,3′-piperidine]-6-carboxamide], the IC50 is at most 100 nM.

As for `O=C(NO)c1ccc2c(c1)CC[C@]1(CCCN(C3CC3)C1=O)C2` [Compound I-183, (S)-1′-cyclopropyl-N-hydroxy-2′-oxo-3,4-dihydro-1H-spiro[naphthalene-2,3′-piperidine]-6-carboxamide], the IC50 is at most 100 nM.

In the case of `O=C(NO)c1ccc2c(c1)CC[C@@]1(CCCN(C3CCCC3)C1=O)C2` [Compound I-199, (R)-1′-cyclopentyl-N-hydroxy-2′-oxo-3,4-dihydro-1H-spiro[naphthalene-2,3′-piperidine]-6-carboxamide], the IC50 was at most 100 nM.

Regarding `O=C(NO)c1ccc2c(c1)CC[C@]1(CCCN(C3CCCC3)C1=O)C2` [Compound I-200, (S)-1′-cyclopentyl-N-hydroxy-2′-oxo-3,4-dihydro-1H-spiro[naphthalene-2,3′-piperidine]-6-carboxamide], the IC50 was at most 100 nM.

On to `O=C(NO)c1ccc2c(c1)CC[C@]1(CC(=O)N(c3ccncc3)C1)C2` [Compound I-228, (R)-N-hydroxy-5′-oxo-1′-(pyridin-4-yl)-3,4-dihydro-1H-spiro[naphthalene-2,3′-pyrrolidine]-6-carboxamide], for which the IC50 was at most 100 nM.

`O=C(NO)c1ccc2c(c1)CC[C@]1(CC(=O)N(c3ccccn3)C1)C2` [Compound I-229, (R)-N-hydroxy-5′-oxo-1′-(pyridin-2-yl)-3,4-dihydro-1H-spiro[naphthalene-2,3′-pyrrolidine]-6-carboxamide]: the IC50 was at most 100 nM.

On to `O=C(NO)c1ccc2c(c1)CCC1(CCN(Cc3ccncc3)C1=O)O2` (centres unmarked) [Compound I-230, N-hydroxy-2′-oxo-1′-(pyridin-4-ylmethyl)spiro[chromane-2,3′-pyrrolidine]-6-carboxamide], for which the IC50 was over 500 nM.

For `O=C(NO)c1ccc2c(c1)CCC1(CCN(c3ccccc3)C1=O)O2` (centres unmarked) [Compound I-231, N-hydroxy-2′-oxo-1′-phenylspiro[chromane-2,3′-pyrrolidine]-6-carboxamide], the IC50 lay within 100 to 500 nM.

Take `O=C(NO)c1ccc2c(c1)CCC1(CCN(Cc3ccccc3)C1=O)O2` (centres unmarked) [Compound I-232, 1′-benzyl-N-hydroxy-2′-oxospiro[chromane-2,3′-pyrrolidine]-6-carboxamide]: the IC50 was in the range of 100 to 500 nM.

Take `O=C(NO)c1ccc2c(c1)CCC1(CCN(c3cccnc3)C1=O)O2` (centres unmarked) [Compound I-233, N-hydroxy-2′-oxo-1′-(pyridin-3-yl)spiro[chromane-2,3′-pyrrolidine]-6-carboxamide]: the IC50 was 100 to 500 nM.

With `O=C(NO)c1ccc2c(c1)CCC1(CCN(CC3CCOCC3)C1=O)O2` (centres unmarked) [Compound I-234, N-hydroxy-2′-oxo-1′-((tetrahydro-2H-pyran-4-yl)methyl)spiro[chromane-2,3′-pyrrolidine]-6-carboxamide], the IC50 was over 500 nM.

As for `CC(C)N1CCC2(CCc3cc(C(=O)NO)ccc3O2)C1=O` (centres unmarked) [Compound I-235, N-hydroxy-1′-isopropyl-2′-oxospiro[chromane-2,3′-pyrrolidine]-6-carboxamide], the IC50 is over 500 nM.

In the case of `O=C(NO)c1ccc2c(c1)CCC1(CCNC1=O)O2` (centres unmarked) [Compound I-236, N-hydroxy-2′-oxospiro[chromane-2,3′-pyrrolidine]-6-carboxamide], the IC50 lay within 100 to 500 nM.

The values above are taken from patent publication US9630922B2, “3-spiro-7-hydroxamic acid tetralins as HDAC inhibitors” (Forma Therapeutics, Inc., priority 2015, dated 2017).
